# Measured values: patent US20130261132A1, “CALCIUM-SENSING RECEPTOR-ACTIVE COMPOUNDS” (LEO PHARMA A/S, priority 2010, published 2013)
# Experiment: Clearance in rat hepatocytes
# Type: in vitro ADME
# Conditions: hepatic extraction ratio; test compound 0.5 μM, 1×10^6 cells/mL, 37° C.
# Procedure: Test compounds and 4 control compounds are tested in duplicate per run. Test compound concentration is 0.5 μM and cell concentration is 1×10^6 cells/mL in the incubation. The described method is performed by the liquid handling system Tecan RSP and is based on a 96-well format.
# The liver is collected from a male Spraque-Dawley rat. One liver lobe is cut off and flushed with various buffers to loosen the cells. The cell suspension is washed and centrifuged, and the cell density is adjusted to 1.2×10^6 cells/mL with Krebs-Henseleit buffer, pH 7.4, containing 0.2% bovine serum albumin (BSA). Only cell suspensions with viability above 80% are used.
# The cell suspension is pre-heated (20 min) to 37° C. Test compound is added, and the mixture is incubated for 20 minutes. Incubations are run in duplicate. Samples are withdrawn at predetermined stop times and mixed with methanol containing internal standard (IS) to terminate all enzyme activity and precipitate proteins.
# The percentage of organic solvent in the incubations is less than 1%. Careful inspections of reagents are performed prior to the start of any experiment to ensure all reagents are in solution.
# The 96-well plates are centrifuged. Test compound depletion, using a compound specific LC/MS/MS method, is determined.
# Data analysis is performed as described above in the section “Biological assay for analysis of clearance in human liver microsomes”, with the following modifications: Intrinsic clearance (CIint) (mL/min/10^6 cells) is calculated from: […]
# where c is the cell concentration in 10^6 cells/mL.
# The following scaling factors for rat are used for eq. 4:
# a: 120 (cells/liver weight (10^6 cells/g))
# d: 0.25 (body weight (kg))
# Liver blood flow in rats (for eq. 5):
# Apparent clearance below approximately 25 mL/min/kg rat body weight (corresponding to an extraction ratio of approx. 33%) is considered as low clearance (high metabolic stability). Apparent intrinsic clearance above approximately 165 mL/min/kg rat body weight (corresponding to an extraction ratio of approx. 75%) is considered as high clearance (low metabolic stability).
row,Clearance (% Eh) in rat hepatocytes,Compound
1,B (B: 33% ≦ Eh ≦ 75%),"COc1cc([C@@H](C)N[C@H]2CC[C@@H](c3ccc(OCC(=O)NCCNCCO)cc3)C2)ccc1F [Compound 106, 2-[4-[(1R,3S)-3-[[(1R)-1-(4-Fluoro-3-methoxy-phenyl)ethyl]-amino]-cyclopentyl]phenoxy]-N-[2-(2-hydroxyethylamino)ethyl]acetamide]"
2,B (B: 33% ≦ Eh ≦ 75%),"COc1cc([C@@H](C)N[C@H]2CC[C@@H](c3ccc(OCC(=O)N4CCN(C(C)=O)CC4)cc3)C2)ccc1F [Compound 109, 1-(4-Acetylpiperazin-1-yl)-2-[4-[(1R,3S)-3-[[(1R)-1-(4-fluoro-3-methoxy-phenyl)ethyl]amino]cyclopentyl]phenoxy]ethanone]"
3,B (B: 33% ≦ Eh ≦ 75%),"C[C@@H](N[C@H]1CC[C@@H](c2ccc(OCC(=O)NC3CCNCC3)cc2)C1)c1cccc2ccccc12 [Compound 112, 2-[4-[(1R,3S)-3-[[(1R)-1-(1-Naphthyl)ethyl]amino]cyclopentyl]-phenoxy]-N-(4-piperidyl)acetamide]"
4,A (A: Eh < 33%),"COc1cc([C@@H](C)N[C@H]2CC[C@@H](c3ccc(OCC(=O)NCCS(N)(=O)=O)cc3)C2)ccc1F [Compound 104, 2-[4-[(1R,3S)-3-[[(1R)-1-(4-Fluoro-3-methoxy-phenyl)ethyl]-amino]-cyclopentyl]phenoxy]-N-(2-sulfamoylethyl)acetamide]"
5,B (B: 33% ≦ Eh ≦ 75%),"COc1cc([C@@H](C)N[C@H]2CC[C@@H](c3ccc(OCC(=O)NCCNS(C)(=O)=O)cc3)C2)ccc1F [Compound 108, 2-[4-[(1R,3S)-3-[[(1R)-1-(4-Fluoro-3-methoxy-phenyl)ethyl]-amino]-cyclopentyl]phenoxy]-N-[2-(methanesulfonamido)ethyl]acetamide]"
6,B (B: 33% ≦ Eh ≦ 75%),"COc1cc([C@@H](C)N[C@H]2CC[C@@H](c3ccc(OCC(=O)N4CCNCC4)cc3)C2)ccc1F [Compound 103, 2-[4-[(1R,3S)-3-[[(1R)-1-(4-Fluoro-3-methoxy-phenyl)ethyl]-amino]-cyclopentyl]phenoxy]-1-piperazin-1-yl-ethanone]"
7,B (B: 33% ≦ Eh ≦ 75%),"COc1cc([C@@H](C)N[C@H]2CC[C@@H](c3ccc(OCC(=O)N4CCN(S(N)(=O)=O)CC4)cc3)C2)ccc1F [Compound 110, 4-[2-[4-[(1R,3S)-3-[[(1R)-1-(4-Fluoro-3-methoxy-phenyl)-ethyl]-amino]cyclopentyl]phenoxy]acetyl]piperazine-1-sulfonamide]"
